Measurements reported in patent publication US9833497B2, “Human originated EGF domain proteins and use of the same” (CHENGDU SOURCEBIO LIMITED-LIABILITY COMPANY, priority 2013, dated 2017).

Tests used:
Type in all cases: cell-based
E. coli DH5α = assay: Antibacterial activity: MIC and growth curve against E. coli DH5α in 96-well plate; details: minimal inhibitory concentration against E. coli DH5α; 96-well plate, 5×10^5 CFU/mL, 37° C., judged after 8 h
Procedure, shortened: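 Log-phase DH5α (OD600 about 0.5, 37° C, 185 rpm in LB) was pelleted, resuspended in fresh LB and seeded at 5×10^5 CFU/mL with recombinant protein at 50, 25 and 12.5 μg/mL (two-fold series), in triplicate. Plates were shaken at 175 rpm, 37° C, and OD600 was read every 30 min. MIC was the lowest concentration with no growth.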

E. coli BL21 = assay: MIC against Gram-negative bacteria: E. coli BL21; details: 5×10^5 CFU/mL
Procedure, shortened: (§1)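 LB broth cultures at McFarland 0.5, spun down, resuspended, diluted to 5×10^5 CFU/mL final. Two-fold serial dilutions of purified human EGF domain proteins, triplicate. 37° C, 175 rpm shaking. Endpoint: no visible growth.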

Pseudomonas aeruginosa = assay: MIC against Gram-negative bacteria: Pseudomonas aeruginosa; details: 5×10^5 CFU/mL
Procedure, shortened: as §1

Klebsiella pneumonia = assay: MIC against Gram-negative bacteria: Klebsiella pneumonia; details: 5×10^5 CFU/mL
Procedure, shortened: as §1

Enterobacter cloacae = assay: MIC against Gram-negative bacteria: Enterobacter cloacae; details: 5×10^5 CFU/mL
Procedure, shortened: as §1

Aeromonas hydrophila = assay: MIC against Gram-negative bacteria: Aeromonas hydrophila; details: 5×10^5 CFU/mL
Procedure, shortened: as §1

Citrobacter diversus = assay: MIC against Gram-negative bacteria: Citrobacter diversus; details: 5×10^5 CFU/mL
Procedure, shortened: as §1

Moraxella catarrhalis = assay: MIC against Gram-negative bacteria: Moraxella catarrhalis; details: 5×10^5 CFU/mL
Procedure, shortened: as §1

Proteus mirabilis = assay: MIC against Gram-negative bacteria: Proteus mirabilis; details: 5×10^5 CFU/mL
Procedure, shortened: as §1

Proteus vulgaris = assay: MIC against Gram-negative bacteria: Proteus vulgaris; details: 5×10^5 CFU/mL
Procedure, shortened: as §1

Serratia marcescens = assay: MIC against Gram-negative bacteria: Serratia marcescens; details: 5×10^5 CFU/mL
Procedure, shortened: as §1

[1] = E. coli BL21, 10 h cultivation at 37° C.

## PRT809 (NESCTCANGAACSPIDGSCSCTPGWLGDTCE; listed as Homo sapiens)
E. coli DH5α
  MIC: 25 µg/mL
E. coli BL21; [1]
  MIC (μg/mL) E. coli BL21: 12.5 µg/mL
Pseudomonas aeruginosa; 10 h cultivation at 37° C.
  MIC (μg/mL) P. aeruginosa: 25 µg/mL
Klebsiella pneumonia; 10 h cultivation at 37° C.
  MIC (μg/mL) K. pneumonia: 25 µg/mL
Enterobacter cloacae; 10 h cultivation at 37° C.
  MIC (μg/mL) E. cloacae: 50 µg/mL
Aeromonas hydrophila; 10 h cultivation at 37° C.
  MIC (μg/mL) A. hydrophila: 12.5 µg/mL
Citrobacter diversus; 10 h cultivation at 37° C.
  MIC (μg/mL) C. diversus: 25 µg/mL
Moraxella catarrhalis; 10 h cultivation at 37° C.
  MIC (μg/mL) M. catarrhalis: 50 µg/mL
Proteus mirabilis; 10 h cultivation at 37° C.
  MIC (μg/mL) P. mirabilis: 25 µg/mL
Proteus vulgaris; 10 h cultivation at 37° C.
  MIC (μg/mL) P. vulgaris: 12.5 µg/mL
Serratia marcescens; 10 h cultivation at 37° C.
  MIC (μg/mL) S. marcescens: 25 µg/mL

## PRT1415 (PRATCLDQCSGHGTFLPDTGLCSCDPSWTGHDCS; listed as Homo sapiens)
E. coli DH5α
  MIC: 25 µg/mL
E. coli BL21; [1]
  MIC against E. coli BL21: 12.5 µg/mL
Pseudomonas aeruginosa; Pseudomonas aeruginosa, 10 h cultivation at 37° C.
  MIC against P. aeruginosa: 25 µg/mL
Klebsiella pneumonia; Klebsiella pneumonia, 10 h cultivation at 37° C.
  MIC against K. pneumonia: 12.5 µg/mL
Enterobacter cloacae; Enterobacter cloacae, 10 h cultivation at 37° C.
  MIC against E. cloacae: 25 µg/mL
Aeromonas hydrophila; Aeromonas hydrophila, 10 h cultivation at 37° C.
  MIC against A. hydrophila: 25 µg/mL
Citrobacter diversus; Citrobacter diversus, 10 h cultivation at 37° C.
  MIC against C. diversus: 50 µg/mL
Moraxella catarrhalis; Moraxella catarrhalis, 10 h cultivation at 37° C.
  MIC against M. catarrhalis: 25 µg/mL
Proteus mirabilis; Proteus mirabilis, 10 h cultivation at 37° C.
  MIC against P. mirabilis: 12.5 µg/mL
Proteus vulgaris; Proteus vulgaris, 10 h cultivation at 37° C.
  MIC against P. vulgaris: 25 µg/mL
Serratia marcescens; Serratia marcescens, 10 h cultivation at 37° C.
  MIC against S. marcescens: 50 µg/mL

## PRT648 (DIDECLNPSTCPDEQCVNSPGSYQCVPCTEGFRGWNGQCL; listed as Homo sapiens)
E. coli DH5α
  MIC: 12.5 µg/mL
E. coli BL21; 96-well plate, 37° C., 10 h
  MIC E. coli BL21: 25 µg/mL
Pseudomonas aeruginosa; 96-well plate, 37° C., 10 h
  MIC P. aeruginosa: 50 µg/mL
Klebsiella pneumonia; 96-well plate, 37° C., 10 h
  MIC K. pneumonia: 25 µg/mL
Enterobacter cloacae; 96-well plate, 37° C., 10 h
  MIC E. cloacae: 12.5 µg/mL
Aeromonas hydrophila; 96-well plate, 37° C., 10 h
  MIC A. hydrophila: 50 µg/mL
Citrobacter diversus; 96-well plate, 37° C., 10 h
  MIC C. diversus: 12.5 µg/mL
Moraxella catarrhalis; 96-well plate, 37° C., 10 h
  MIC M. catarrhalis: 50 µg/mL
Proteus mirabilis; 96-well plate, 37° C., 10 h
  MIC P. mirabilis: 12.5 µg/mL
Proteus vulgaris; 96-well plate, 37° C., 10 h
  MIC P. vulgaris: 50 µg/mL
Serratia marcescens; 96-well plate, 37° C., 10 h
  MIC S. marcescens: 12.5 µg/mL

## PRT519 (CQCNDNLDFSIPGSCDSLSGSCLICKPGTTGRYCELCADGYFGDAVDAKNCQP; listed as Homo sapiens)
E. coli DH5α
  MIC: 25 µg/mL
E. coli BL21; 96-well plate, 37° C., 10 h
  MIC against E. coli BL21: 12.5 µg/mL
Pseudomonas aeruginosa; 96-well plate, 37° C., 10 h
  MIC against P. aeruginosa: 12.5 µg/mL
Klebsiella pneumonia; 96-well plate, 37° C., 10 h
  MIC against K. pneumonia: 25 µg/mL
Enterobacter cloacae; 96-well plate, 37° C., 10 h
  MIC against E. cloacae: 12.5 µg/mL
Aeromonas hydrophila; 96-well plate, 37° C., 10 h
  MIC against A. hydrophila: 25 µg/mL
Citrobacter diversus; 96-well plate, 37° C., 10 h
  MIC against C. diversus: 12.5 µg/mL
Moraxella catarrhalis; 96-well plate, 37° C., 10 h
  MIC against M. catarrhalis: 25 µg/mL
Proteus mirabilis; 96-well plate, 37° C., 10 h
  MIC against P. mirabilis: 12.5 µg/mL
Proteus vulgaris; 96-well plate, 37° C., 10 h
  MIC against P. vulgaris: 25 µg/mL
Serratia marcescens; 96-well plate, 37° C., 10 h
  MIC against S. marcescens: 12.5 µg/mL

## PRT149 (LSNICLSHPCLNGQCIDTVSGYFCKCDSGWTGVNCT; listed as Homo sapiens)
E. coli DH5α
  MIC: 12.5 µg/mL
E. coli BL21; [1]
  MIC (μg/mL) E. coli BL21: 12.5 µg/mL
Pseudomonas aeruginosa; 10 h cultivation at 37° C.
  MIC (μg/mL) P. aeruginosa: 12.5 µg/mL
Klebsiella pneumonia; 10 h cultivation at 37° C.
  MIC (μg/mL) K. pneumonia: 25 µg/mL
Enterobacter cloacae; 10 h cultivation at 37° C.
  MIC (μg/mL) E. cloacae: 12.5 µg/mL
Aeromonas hydrophila; 10 h cultivation at 37° C.
  MIC (μg/mL) A. hydrophila: 25 µg/mL
Citrobacter diversus; 10 h cultivation at 37° C.
  MIC (μg/mL) C. diversus: 12.5 µg/mL
Moraxella catarrhalis; 10 h cultivation at 37° C.
  MIC (μg/mL) M. catarrhalis: 25 µg/mL
Proteus mirabilis; 10 h cultivation at 37° C.
  MIC (μg/mL) P. mirabilis: 12.5 µg/mL
Proteus vulgaris; 10 h cultivation at 37° C.
  MIC (μg/mL) P. vulgaris: 12.5 µg/mL
Serratia marcescens; 10 h cultivation at 37° C.
  MIC (μg/mL) S. marcescens: 12.5 µg/mL
